Experiments:
[1] = tested on: rat cardiomyocytes; test: Rat cardiomyocyte culture with or without doxorubicin, cell suffering by LDH assay; format: cell-based; details: 48 hours
Description: The effects of 3-(R)-[3-(2-methoxyphenylthio)-2-(S)-methyl-propyl]amino-3,4-dihydro-2H-1,5-benzoxathiepine were assessed in the following cell model: rat cardiomyocytes were placed in culture either in the presence or in the absence of doxorubicin. After 48 hours, cell suffering was quantified by assay of the concentration of lactate dehydrogenase (LDH); LDH is […].

[2] = Cytotoxicity of the compound itself (statement, no method)
[3] = Effect on normal functioning of the cardiovascular system (earlier work of the inventors); details: even in strong concentrations

Row | Compound | Effect on the toxic effects of doxorubicin / viability of cardiomyocytes (LDH) ([1]; compound at 10 μM, with doxorubicin) | Cytotoxicity [2] | Effect on normal functioning of the cardiovascular system [3] | Effect on viability of cardiomyocytes (LDH) ([1]; doxorubicin at 1 and 10 μM, comparable with Triton X-100)
1 | COc1ccccc1SC[C@@H](C)CN[C@@H]1COc2ccccc2SC1 [3-(R)-[3-(2-methoxyphenylthio)-2-(S)-methyl-propyl]amino-3,4-dihydro-2H-1,5-benzoxathiepine] | significantly reduces the toxic effects of doxorubicin | not cytotoxic | does not affect the normal functioning of the cardiovascular system | 
2 | COc1cccc2c1C(=O)c1c(O)c3c(c(O)c1C2=O)C[C@@](O)(C(=O)CO)C[C@@H]3O[C@H]1C[C@H](N)[C@H](O)[C@H](C)O1 [doxorubicin, reference compound] |  |  |  | significantly affects the viability of cardiomyocytes
